These results are taken from ChEMBL document CHEMBL1157536, “Improvement of meta-tetra(hydroxyphenyl)chlorin-like photosensitizer selectivity with folate-based targeted delivery. synthesis and in vivo delivery studies” (J Med Chem, 2008).

Settings in all cases: in vivo
Data set [1] is described as follows: Ratio of drug uptake in tumor to skin in human KB cells expressing folate receptor xenografted athymic Swiss nude mouse with folate free diet assessed as fluorescence accumulation by UV-visible spectrophotometer. It is filed as ADME, cell-based. (In general: Xenograft models place foreign cells or tissue in a host animal.)
Data set [2] can be described thus: Ratio of drug uptake in tumor to skin in human KB cells expressing folate receptor xenografted athymic Swiss nude mouse with folate diet assessed as fluorescence accumulation by UV-visible spectrophotometer. The class given is ADME, cell-based.
Data set [3] in a line: Ratio of drug uptake in tumor to skin in folate receptor deficient HT29 cells xenografted athymic Swiss nude mouse with folate free diet assessed as fluorescence accumulation by UV-visible spectrophotometer. It is filed as ADME, cell-based, HT-29.
Data set [4] in a line: Ratio of drug uptake in tumor to skin in folate receptor deficient HT29 cells xenografted athymic Swiss nude mouse with folate diet assessed as fluorescence accumulation by UV-visible spectrophotometer. It is filed as ADME, cell-based, HT-29.

As for `O=C(O)c1ccc(-c2c3nc(c(-c4cccc(O)c4)c4ccc([nH]4)c(-c4cccc(O)c4)c4nc(c(-c5cccc(O)c5)c5ccc2[nH]5)C=C4)CC3)cc1`, the Ratio in data set [1] was found to be 2.1; in data set [2] it was 2.8; in data set [3] it was 3.7; in data set [4], 1.1.

`Nc1nc(O)c2nc(CNc3ccc(C(=O)NC(CCC(=O)NCCOCCOCCNC(=O)c4ccc(-c5c6nc(c(-c7cccc(O)c7)c7ccc([nH]7)c(-c7cccc(O)c7)c7nc(c(-c8cccc(O)c8)c8ccc5[nH]8)C=C7)CC6)cc4)C(=O)O)cc3)cnc2n1` (stereo not drawn): the Ratio in data set [1] stood at 5; in data set [2] it was 1.9; in data set [3] it was 1; in data set [4], 2.1.
